Test results: patent publication US6342483B1, “Method for detection and treatment of breast cancer” (Vanderbilt University, priority 1994, dated 2002)

Key:
[1] = test system: ribonucleotide reductase M2 gene; experiment: Northern blot and nuclear run on of ribonucleotide reductase M2 in synchronized MCF-7 cells; type: cell-based, human; conditions: tamoxifen 48 hours, then 1 uM estradiol
From the text: (§1) In order to critically evaluate the function of BRCA1 gene inhibition on growth stimulation and cell cycle progression it was necessary to identify a gene whose expression is cell cycle regulated in human mammary cells. […] Because ribonucleotide reductase constitutes the rate limiting step in DNA synthesis, we reasoned that it might be cell cycle regulated in a synchronous growth model such as MCF-7 cells which can be growth arrested by tamoxifen and then restimulated by estrogen (Aitken et al. 1985, Arteaga et al. 1989). MCF-7 cells were growth arrested by tamoxifen for 48 hours and then stimulated at time zero (0) with 1 uM estradiol (+E) or control vehicle (−E).
FIG. 13A is a Northern blot of mRNA from synchronized MCF-7 cells. At the indicated time in hours, total cellular RNA was isolated and Northern blotting performed using the 1.6 Kb Eco RI fragment from our cloned human ribonucleotide reductase cDNA described above. Two mRNA species of 1.6 and 3.4 Kb are observed in these studies.
Con represents cells which were grown for 48 hours but not treated with tamoxifen.

MCF-7 cells = experiment: Nuclear labelling with tritiated thymidine in synchronized MCF-7 cells; type: cell-based, human; conditions: tamoxifen 48 hours, then 1 uM estradiol
From the text: as §1

[2] = test system: ribonucleotide reductase M2 mRNA; experiment: Nuclease protection assay of ribonucleotide reductase M2 mRNA after antisense treatment, MCF-7 cells; type: cell-based, human; conditions: 40 uM, cultured 4 days
Experimental: (§2) Antisense inhibition is a useful strategy for studying gene expression which is dependent on expression of the antisense target gene (Robinson-Benion and Holt, in press, 1995), e.g. genes whose expression is directly or indirectly dependent on BRCA1 levels. […] A nuclease protection assay of mRNA derived from primary mammary epithelial cells (lanes 1-4, 9-10) or MCF-7 cells Oanes 5-8, 11-12) cultured for 4 days with antisense or control oligonucleotide was performed under the following conditions: no oligonucleotide (lanes 1 and 5); 40 uM antiBRCA1 (lanes 2,6,10,12); 4 uM antiBRCA1 (lanes 3 and 7); 40 uM sense control (lanes 4,8,9,11). Probes for BRCA1 and GAPD are as described for FIG. 10, and the ribonucleotide reductase M2 probe (RR) detects the 200 bp probe is described above.
(§3) Nuclease Protection Assays. PCR primers were derived from BRCA1 sequence in GenBank (Accession number U14680); forward 5′CAA TTG GGC AGA TGT GT 3′ (SEQ ID NO:50) and reverse 5′CTGGGGGATCTGGGGTATCA 3′ (SEQ ID NO:51) which amplify a 113 bp region from exon 24, corresponding to bases 5587 to 5699 of the human BRCA1. This region was selected because this exon has not been reported to be differentially spliced unlike more 5′ exons. […]
(§4) Antisense oligonucleotide studies. Unmodified deoxyribonucleotide were analyzed by gel electrophoresis and UV shadowing and shown to be homogenous and of appropriate size. […]

[3] = test system: human primary mammary epithelial cells; experiment: Growth rate of primary mammary epithelial cells incubated with antisense or sense oligonucleotide; type: cell-based
From the text: (§5) Unmodified 18 base deoxyribonucleotide complementary to the BRCA1 translation initiation site were synthesized and added to cultures of primary mammary epithelial cells (Stampfer et al. 1980) or MCF-7 breast cancer cells (Soule and McGrath, 1980). FIG. 12 is graph showing growth rate of human primary mammary epithelial cells (A), MCF-7 cells (B), retinal pigmented epithelial cells (C), cultured as described below. Points and bars represent the mean and the 95% confidence interval of triplicate counts of cells incubated with a single bolus of the indicated concentration of antisense or control sense deoxyribonucleotide.
Antisense oligonucleotide studies. Unmodified deoxyribonucleotide were analyzed by gel electrophoresis and UV shadowing and shown to be homogenous and of appropriate size. These oligonucleotide were purified by multiple lyophilization and solubilized in buffered media as described (Holt et al. 1988). Sequence of the unmodified antiBRCA1 oligonucleotide 5′AAG AGC AGA TAA ATC CAT 3′(SEQ ID NO: 52) and the complementary sense oligonucleotide 5′ATG GAT TTA TCT GCT CTT 3′ (SEQ ID NO:53) correspond to the presumed translation initiation site at bases […] of the GenBank sequence. The antisense oligonucleotide sequence was searched against GenBank and no significant homologies were identified to genes except BRCA1. Oligonucleotides were used according to our published methods (Holt et al. 1988). Primary mammary epithelial cells were cultured in serum-free medium supplemented with epidermal growth factor, insulin, hydrocortisone, ethanolamine, phosphorylethanolamine, and bovine pituitary extract. MCF-7 cells were cultured in Minimum Essential Medium Eagle (Modified) with Earle's salts and 2g/L sodium bicarbonate m supplemented with 2 mM L-glutamine, GMS-A (Gibco Cat. #680-1300AD), nonessential amino acids, and 2.5% fetal calf serum. Retinal pigmented perithelial cells were cultured in DMEM and 10% calf serum.

[4] = test system: human retinal pigmented epithelial cells; experiment: Growth rate of retinal pigmented epithelial cells incubated with antisense or sense oligonucleotide; type: cell-based; conditions: 40 uM oligonucleotide, single bolus; FIG. 12C
From the text: as §5
(§6) Antisense oligonucleotide studies. Unmodified deoxyribonucleotide were analyzed by gel electrophoresis and UV shadowing and shown to be homogenous and of appropriate size. These oligonucleotide were purified by multiple lyophilization and solubilized in buffered media as described (Holt et al. 1988). Sequence of the unmodified antiBRCA1 oligonucleotide 5′AAG AGC AGA TAA ATC CAT 3′(SEQ ID NO: 52) and the complementary sense oligonucleotide 5′ATG GAT TTA TCT GCT CTT 3′ (SEQ ID NO:53) correspond to the presumed translation initiation site at bases 12-137 of the GenBank sequence. The antisense oligonucleotide sequence was searched against GenBank and no significant homologies were identified to genes except BRCA1. […]

[5] = test system: MCF-7 breast cancer cells; experiment: Growth rate of MCF-7 cells incubated with antisense or sense oligonucleotide; type: cell-based, human; conditions: 40 uM oligonucleotide, single bolus, FIG. 12B
From the text: as §5, §6

[6] = test system: ribonucleotide reductase M2 mRNA; experiment: Nuclease protection assay of ribonucleotide reductase M2 mRNA after antisense treatment, primary mammary epithelial cells; type: cell-based, human; conditions: 40 uM, cultured 4 days
Experimental: as §2, §3, §4

BRCA1 mRNA = experiment: Nuclease protection assay of BRCA1 mRNA after antisense treatment; type: cell-based, human; conditions: compared with cells treated with sense control oligonucleotide; 40 uM, 4 days; lanes 9 and 10 FIG. 14 (primary mammary epithelial cells)
Experimental: as §2, §3, §4

Compound: C[C@]12CC[C@@H]3c4ccc(O)cc4CC[C@H]3[C@@H]1CC[C@@H]2O [estrogen, estradiol]
- transcription of the ribonucleotide reductase M2 gene [1]: induced
- DNA synthesis (MCF-7 cells): induction of synthesis

Compound: CC/C(=C(\c1ccccc1)c1ccc(OCCN(C)C)cc1)c1ccccc1 [tamoxifen]
- transcription of the ribonucleotide reductase M2 gene [1]: inhibited
- DNA synthesis (MCF-7 cells): Inhibition of DNA synthesis

Compound: anti-BRCA1 oligonucleotide: Unmodified 18 base deoxyribonucleotide complementary to the BRCA1 translation initiation site, 5′AAG AGC AGA TAA ATC CAT 3′ (SEQ ID NO: 52) (antisense AAGAGCAGATAAATCCAT; unmodified DNA)
- ribonucleotide reductase mRNA levels [2]: highest
- growth of normal mammary cells ([3]; 40 uM oligonucleotide, single bolus, FIG. 12A): accelerated growth
- morphologic appearance of the cell lines ([3]; addition of antisense oligonucleotide): not noticeably changed
- proliferative rate of the cell lines ([3]; addition of antisense oligonucleotide, dose not stated): faster
- cell growth rate ([3]; intermediate dose, cell line not given): less pronounced but significant increase
- growth of human retinal pigmented epithelial cells [4]: did not affect the growth
- growth of malignant mammary cells [5]: accelerated growth
- ribonucleotide reductase mRNA levels [6]: highest
- inhibition of BRCA1 mRNA levels (BRCA1 mRNA): 70-90%

Compound: sense oligomer: Complementary sense control oligonucleotide with the same GC content, 5′ATG GAT TTA TCT GCT CTT 3′ (SEQ ID NO:53) (sense ATGGATTTATCTGCTCTT; further chemistry not given here) [reference compound]
- growth activation by anti-BRCA1 oligomer ([3]; 10 fold excess of sense oligomer added to the anti-BRCA1 oligomer, cell line not specified): reversed the growth activation
- proliferation rate ([3]; control oligomer with the same GC content, cell line not specified): did not increase the proliferation rate
